Data taken from patent US10556888B2, “Pyrazole compounds or salts thereof, preparation methods therefor, herbicidal compositions and use thereof” (QINGDAO KINGAGROOT CHEMICAL COMPOUNDS CO., LTD, priority 2015, dated 2020).

Experiments:
[1] = test system: main crop (wheat, corn, rice, soybean, cotton, oilseed, millet and sorghum); assay: Post-emergence test experiment, main crops (Table 2); format: in vivo; set-up: key: Level 10: completely dead; Level 9: above 90% growth inhibition rate; Level 8: above 80% growth inhibition rate; Level 7: above 70% growth inhibition rate; Level 6: above 60% growth inhibition rate; Level 5: above 50% growth inhibition rate; Level 4: above 30% growth inhibition rate; Level 3: above 20% growth inhibition rate; Level 2: above 10% growth inhibition rate; Level 1: above 1-10% growth inhibition rate; Level 0: no effect; details: 3 weeks after spraying, greenhouse
Summary of the method: (§1)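 Compounds, dissolved in acetone, mixed with Tween 80 and diluted in water, were sprayed post-emergence onto greenhouse-grown weeds and crops at the 2-3 leaf stage (2-3 weeks post-sowing). Plants then grown 3 more weeks in the greenhouse before evaluation.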

[2] = test system: Monocotyledonous and dicotyledonous weed; assay: Post-emergence test experiment, weed control effect (Table 2); format: in vivo; set-up: key to weed control effect, Setaria viridis (level) / weed control effect, Rorippa indica (level) / weed control effect, Abutilon theophrasti (level) / weed control effect, Echinochloa crus-galli (level) / weed control effect, Digitaria sanguinalis (level): Level 10: completely dead; Level 9: above 90% growth inhibition rate; Level 8: above 80% growth inhibition rate; Level 7: above 70% growth inhibition rate; Level 6: above 60% growth inhibition rate; Level 5: above 50% growth inhibition rate; Level 4: above 30% growth inhibition rate; Level 3: above 20% growth inhibition rate; Level 2: above 10% growth inhibition rate; Level 1: above 1-10% growth inhibition rate; Level 0: no effect; details: 3 weeks after spraying, greenhouse
Summary of the method: as §1

Compound | effect on crop, corn (level) ([1]; 60 g/ha) | effect on crop, rice (level) ([1]; 60 g/ha) | effect on crop, wheat (level) ([1]; 60 g/ha) | weed control effect, Abutilon theophrasti (level) ([2]; 60 g/ha) | weed control effect, Bidens pilosa (level) ([2]; 60 g/ha) | weed control effect, Digitaria sanguinalis (level) ([2]; 60 g/ha) | weed control effect, Echinochloa crus-galli (level) ([2]; 60 g/ha) | weed control effect, Rorippa indica (level) ([2]; 60 g/ha) | weed control effect, Setaria viridis (level) ([2]; 60 g/ha) | effect on crop, corn (level) ([1]; 30 g/ha) | effect on crop, rice (level) ([1]; 30 g/ha) | effect on crop, wheat (level) ([1]; 30 g/ha) | weed control effect, Abutilon theophrasti (level) ([2]; 30 g/ha) | weed control effect, Bidens pilosa (level) ([2]; 30 g/ha) | weed control effect, Digitaria sanguinalis (level) ([2]; 30 g/ha) | weed control effect, Echinochloa crus-galli (level) ([2]; 30 g/ha) | weed control effect, Rorippa indica (level) ([2]; 30 g/ha) | weed control effect, Setaria viridis (level) ([2]; 30 g/ha)
CCOCCOCc1c(S(C)(=O)=O)ccc(C(=O)c2c(C)nn(C)c2OC(=O)c2cn(C)nc2C)c1Cl [Compound 39] | 0 | 1 (Level 1: above 1-10% growth inhibition rate) | 0 | 10 | 8 (Level 8: above 80% growth inhibition rate) | 9 (Level 9: above 90% growth inhibition rate) | 10 | 10 | 10 | – | – | – | – | – | – | – | – | –
C#CCOCc1c(S(C)(=O)=O)ccc(C(=O)c2cnn(C)c2OC(=O)c2cn(C)nc2C)c1Cl [Compound 41] | – | – | – | – | – | – | – | – | – | 0 | 5 (Level 5: above 50% growth inhibition rate) | 0 | 7 (Level 7: above 70% growth inhibition rate) | 7 (Level 7: above 70% growth inhibition rate) | 8 (Level 8: above 80% growth inhibition rate) | 10 | 10 | 10
CCOCc1c(S(C)(=O)=O)ccc(C(=O)c2cnn(C)c2OC(=O)c2cn(C)nc2C)c1Cl [Compound 42] | – | – | – | – | – | – | – | – | – | 0 | 5 (Level 5: above 50% growth inhibition rate) | 0 | 7 (Level 7: above 70% growth inhibition rate) | 7 (Level 7: above 70% growth inhibition rate) | 7 (Level 7: above 70% growth inhibition rate) | 10 | 10 | 9 (Level 9: above 90% growth inhibition rate)
CC=CCOCc1c(S(C)(=O)=O)ccc(C(=O)c2cnn(C)c2OC(=O)c2cn(C)nc2C)c1Cl [Compound 43] | – | – | – | – | – | – | – | – | – | 0 | 3 (Level 3: above 20% growth inhibition rate) | 0 | 7 (Level 7: above 70% growth inhibition rate) | 7 (Level 7: above 70% growth inhibition rate) | 7 (Level 7: above 70% growth inhibition rate) | 10 | 10 | 9 (Level 9: above 90% growth inhibition rate)
Cc1nn(C)cc1C(=O)Oc1c(C(=O)c2ccc(S(C)(=O)=O)c(COCC(F)(F)F)c2Cl)cnn1C [Compound 44] | – | – | – | – | – | – | – | – | – | 0 | 3 (Level 3: above 20% growth inhibition rate) | 0 | 7 (Level 7: above 70% growth inhibition rate) | 7 (Level 7: above 70% growth inhibition rate) | 10 | 10 | 10 | 9 (Level 9: above 90% growth inhibition rate)
CCOCCOCc1c(S(C)(=O)=O)ccc(C(=O)c2cnn(C)c2OC(=O)c2cn(C)nc2C)c1Cl [Compound 45] | – | – | – | – | – | – | – | – | – | 0 | 3 (Level 3: above 20% growth inhibition rate) | 0 | 7 (Level 7: above 70% growth inhibition rate) | 7 (Level 7: above 70% growth inhibition rate) | 7 (Level 7: above 70% growth inhibition rate) | 9 (Level 9: above 90% growth inhibition rate) | 10 | 7 (Level 7: above 70% growth inhibition rate)
C#CCOCc1c(S(C)(=O)=O)ccc(C(=O)c2c(C3CC3)nn(C)c2OC(=O)c2cn(C)nc2C)c1Cl [Compound 47] | – | – | – | – | – | – | – | – | – | 0 | 3 (Level 3: above 20% growth inhibition rate) | 0 | 7 (Level 7: above 70% growth inhibition rate) | 7 (Level 7: above 70% growth inhibition rate) | 7 (Level 7: above 70% growth inhibition rate) | 10 | 10 | 9 (Level 9: above 90% growth inhibition rate)
Cc1nn(C)cc1C(=O)Oc1c(C(=O)c2ccc(S(C)(=O)=O)c(COCC(F)(F)C(F)F)c2Cl)c(C2CC2)nn1C [Compound 48] | – | – | – | – | – | – | – | – | – | 0 | 3 (Level 3: above 20% growth inhibition rate) | 0 | 7 (Level 7: above 70% growth inhibition rate) | 7 (Level 7: above 70% growth inhibition rate) | 7 (Level 7: above 70% growth inhibition rate) | 10 | 10 | 9 (Level 9: above 90% growth inhibition rate)
Cc1nn(C)cc1C(=O)Oc1c(C(=O)c2ccc(S(C)(=O)=O)c(COCC(F)(F)F)c2Cl)c(C2CC2)nn1C [Compound 49] | – | – | – | – | – | – | – | – | – | 0 | 3 (Level 3: above 20% growth inhibition rate) | 0 | 7 (Level 7: above 70% growth inhibition rate) | 7 (Level 7: above 70% growth inhibition rate) | 7 (Level 7: above 70% growth inhibition rate) | 10 | 10 | 9 (Level 9: above 90% growth inhibition rate)
Cc1nn(C)cc1C(=O)Oc1c(C(=O)c2ccc(S(C)(=O)=O)c(COCC(F)F)c2Cl)c(C2CC2)nn1C [Compound 50] | – | – | – | – | – | – | – | – | – | 0 | 3 (Level 3: above 20% growth inhibition rate) | 0 | 6 (Level 6: above 60% growth inhibition rate) | 7 (Level 7: above 70% growth inhibition rate) | 8 (Level 8: above 80% growth inhibition rate) | 10 | 10 | 9 (Level 9: above 90% growth inhibition rate)
COCCCOCc1c(S(C)(=O)=O)ccc(C(=O)c2c(C3CC3)nn(C)c2OC(=O)c2cn(C)nc2C)c1Cl [Compound 52] | – | – | – | – | – | – | – | – | – | 1 (Level 1: above 1-10% growth inhibition rate) | 3 (Level 3: above 20% growth inhibition rate) | 0 | 7 (Level 7: above 70% growth inhibition rate) | 7 (Level 7: above 70% growth inhibition rate) | 7 (Level 7: above 70% growth inhibition rate) | 10 | 10 | 6 (Level 6: above 60% growth inhibition rate)
